From PMC5138836, “Antiproliferative activities of Amaryllidaceae alkaloids from Lycoris radiata targeting DNA topoisomerase I” (Scientific Reports, 2016)

Target: T1, DNA topoisomerase I (Top I) (Escherichia coli, UniProt P06612)
T1 construct: gene topA
Test: in vitro Top I inhibition assay (absorbance, plate reader); also affinity ultrafiltration HPLC-MS, EF […]
Format: biochemical

T1 sequence (P06612 whole entry): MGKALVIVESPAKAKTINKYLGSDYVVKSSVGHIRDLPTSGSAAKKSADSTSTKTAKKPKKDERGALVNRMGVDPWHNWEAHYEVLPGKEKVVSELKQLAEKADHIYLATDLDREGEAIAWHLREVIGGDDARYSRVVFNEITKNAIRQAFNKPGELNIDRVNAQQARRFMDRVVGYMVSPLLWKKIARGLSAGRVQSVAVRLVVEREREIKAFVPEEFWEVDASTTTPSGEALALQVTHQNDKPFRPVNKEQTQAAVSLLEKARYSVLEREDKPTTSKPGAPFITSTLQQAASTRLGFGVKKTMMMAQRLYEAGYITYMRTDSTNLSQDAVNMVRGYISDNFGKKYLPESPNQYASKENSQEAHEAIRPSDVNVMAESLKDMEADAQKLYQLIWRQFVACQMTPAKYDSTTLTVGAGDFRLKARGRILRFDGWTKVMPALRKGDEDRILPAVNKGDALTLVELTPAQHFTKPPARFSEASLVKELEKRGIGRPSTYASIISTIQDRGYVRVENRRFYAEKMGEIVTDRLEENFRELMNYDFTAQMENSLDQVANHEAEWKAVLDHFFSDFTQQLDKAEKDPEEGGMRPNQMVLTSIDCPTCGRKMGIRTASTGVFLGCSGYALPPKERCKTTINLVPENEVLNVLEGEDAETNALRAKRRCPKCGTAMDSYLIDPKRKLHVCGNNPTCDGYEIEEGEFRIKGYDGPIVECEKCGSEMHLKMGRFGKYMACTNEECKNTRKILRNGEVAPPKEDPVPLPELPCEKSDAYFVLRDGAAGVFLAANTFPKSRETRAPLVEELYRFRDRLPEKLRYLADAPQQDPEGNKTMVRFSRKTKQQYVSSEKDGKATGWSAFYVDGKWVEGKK

How did the IC50 turn out when `CN1CCC2=C[C@H](O)[C@H]3OC(=O)c4cc5c(cc4[C@H]3[C@@H]21)OCO5` [compound 5, hippeastrine] was run?
The IC50 was 23 µM.
